Source: US4868154A, “Stimulation of tear secretion with melanocyte stimulating hormones” (Eye Research Institute of Retina Foundation, priority 1986, dated 1989)
Where no end group is shown, it is not given here.

Legend:
rabbits with dry eyes = assay: Tear film osmolality after topical drops in dry eye rabbits; type: in vivo; details: dry eye rabbit, topical 10 μl drops, 10^-5 M, 10^-4 M and 10^-3 M in buffer, FIGS. 2 to 4; for tear film osmolality compared with buffer alone: tear samples at 6 and 16 minutes
Procedure: In vivo examples in accordance with the invention were conducted on rabbits with dry eyes. The dry eye disorder is created by surgically closing the duct that carries fluid from the main lacrimal gland to the tear film and surgically removing the nictitans and harderian glands. This leaves intact only the accessory glands that lie on the surface of the eye. These rabbits develop increased tear film osmolality soon after the operation, a finding that is understood to be due to decreased tear production, and that is characteristic of dry eye. It is recognized that results of opthalmologic tests using rabbits has close correlation with humans and therefore the results carry over to humans
The effect on tear film osmolality of topically applied isotonic buffer solution with and without melanocyte stimulating hormones which activate the melanotropin receptors was studied in the dry eye rabbit. All test drops were ten microliters (μl) in volume. Tear samples were taken with a micropipette system, in the manner described in the article entitled "Osmolarity of Tear Microvolumes in Keratoconjunctivitis Sicca", by Gilbard et al, Arch Ophthalmol 96:677, 1978. Osmolarity was measured by freezing-point depression.
The following protocol was used to test the effects of the topically applied melanotropins. At zero time a tear sample was taken for measurement of osmolality. At one minute the test drop was instilled. At six and at sixteen minutes, tear samples were taken for osmolality measurements. Five minutes after the sixteen minute sample, the above sequence was repeated several times to test additional drops.
The following drops were instilled in the test eye and after each such instillation, test samples were taken as stated: (1) buffer solution, (2) buffer solution containing a melanocyte stimulating hormone at a low dose, (3) buffer solution, (4) buffer solution containing a melanocyte stimulating hormone at a moderate dose, (5) buffer solution, (6) buffer solution containing a melanocyte stimulating hormone at a higher dose. The melanocyte stimulating hormone may be obtained from Peninsula Laboratories,Inc., Belmont California. The results are shown in FIGS. 1 through 4 A, B, and C, where FIGS. 1 through 4 each represent results obtained from the same rabbit.

tissue pieces in vitro = details: Jahn et al Eur. J. Biochem 126: 623, 1982; cited from earlier work
lacrimal gland = details: topical administration; Gilbard and Dartt, patent pending; cited from earlier work
lacrimal gland cells = details: Dartt et al, Am. J. Physio. 247: G502, 1984; cited from earlier work

Substance | dose dependence of the decrease in tear film osmolality (rabbits with dry eyes) | tear film osmolality compared with buffer alone (rabbits with dry eyes) | protein secretion (tissue pieces in vitro) | lacrimal gland fluid secretion (lacrimal gland) | cyclic AMP levels in lacrimal gland cells (lacrimal gland cells)
beta-melanocyte stimulating hormone [beta-MSH] | dose-dependent decrease in tear film osmolality | lowers the tear film osmolality more effectively than buffer alone | – | – | –
adrenocorticotropic hormone (SYSMEHFRWGKPVGKKRRPVKVYPNGAEDESAEAFPLEF; Corticotropin; UniProt P01189 138-176, looked up) [hormone cited from literature as stimulating protein secretion in vitro] | – | – | stimulate protein secretion | – | –
vasoactive intestinal peptide (HSDAVFTDNYTRLRKQMAVKKYLNSILN; ends and bridges not checked; UniProt P01282 125-152, looked up) [peptide cited from prior work as stimulating lacrimal gland fluid secretion] | – | – | – | stimulates lacrimal gland fluid secretion | increase cyclic AMP levels
gamma-melanocyte stimulating hormone [gamma-MSH] | dose-dependent decrease in tear film osmolality | lowers the tear film osmolality more effectively than buffer alone | – | – | –
